From ChEMBL document CHEMBL4334438, “Discovery of novel glycogen synthase kinase-3α inhibitors: Structure-based virtual screening, preliminary SAR and biological evaluation for treatment of acute myeloid leukemia” (Eur J Med Chem, 2019)

Columns and labels:
[1] = system: Hepatocyte growth factor receptor (Homo sapiens), P08581 [D1228N]; assay: Inhibition of recombinant human MET A1209G/V1290L/D1246N mutant (974 to end residues) assessed as residual activity at 1 uM using KKKGQEEEYVFIE as substrate incubated for 40 mins in presence of [gamma-33ATP by scintillation counting based radiometry assay relative to control
[2] = target: Ribosomal protein S6 kinase alpha-4 (Homo sapiens) (UniProt O75676); assay: Inhibition of recombinant human MSK2 (2 to end residues) assessed as residual activity at 1 uM using GRPRTSSFAEGKK as substrate measured after 40 mins in presence of [gamma33P]ATP by scintillation counting method relative to control
[3] = target: Ribosomal protein S6 kinase alpha-5 (Homo sapiens) (UniProt O75582); assay: Inhibition of recombinant human MSK1 (2 to end residues) assessed as residual activity at 1 uM using GRPRTSSFAEGKK as substrate measured after 40 mins in presence of [gamma33P]ATP by scintillation counting method relative to control
[4] = system: Serine/threonine-protein kinase Chk2 (Homo sapiens), O96017 [R145W]; assay: Inhibition of recombinant human CHK2 R145W mutant (5 to end residues) assessed as residual activity at 1 uM using KKKVSRSGLYRSPSMPENLNRPR as substrate incubated for 40 mins in presence of [gamma-33ATP] by scintillation counting based radiometry assay relative to control
[5] = target: NUAK family SNF1-like kinase 2 (Homo sapiens) (UniProt Q9H093); assay: Inhibition of recombinant human full length NUAK2 assessed as residual activity at 1 uM using KKKVSRSGLYRSPSMPENLNRPR as substrate measured after 40 mins in presence of [gamma33P]ATP by scintillation counting method relative to control
[6] = species: Homo sapiens; assay: Inhibition of recombinant human Ros V2262A mutant (1883 to end residues) assessed as residual activity at 1 uM using KKKSPGEYVNIEFG as substrate measured after 40 mins in presence of [gamma33P]ATP by scintillation counting method relative to control
[7] = system: Tyrosine-protein kinase BTK (Homo sapiens), Q06187 [R28H]; assay: Inhibition of recombinant full length human BTK R28H mutant assessed as residual activity at 1 uM using LSNLYHQGKFLQTFCGSPLYRRR as substrate incubated for 40 mins in presence of [gamma-33ATP] by scintillation counting based radiometry assay relative to control
[8] = target: Receptor tyrosine-protein kinase erbB-4 (Homo sapiens) (UniProt Q15303); assay: Inhibition of recombinant human ERBB4 (706 to 991 residues) assessed as residual activity at 1 uM using poly(Glu, Tyr) 4:1 as substrate at 40 mins in presence of [gamma-33ATP] by scintillation counting based radiometry assay relative to control
[9] = target: SRSF protein kinase 1 (Homo sapiens) (UniProt Q96SB4); assay: Inhibition of human SRPK1 (2 to end residues) assessed as residual activity at 1 uM using RSRSRSRSRSRSRSR as substrate measured after 40 mins in presence of [gamma33P]ATP by scintillation counting method relative to control
[10] = target: Aurora kinase B (Homo sapiens) (UniProt Q96GD4); assay: Inhibition of recombinant full length human Aurora B assessed as residual activity at 1 uM using AKRRRLSSLRA as substrate incubated for 40 mins in presence of [gamma-33ATP] by scintillation counting based radiometry assay relative to control
[11] = target: Testis-specific serine/threonine-protein kinase 1 (Homo sapiens) (UniProt Q9BXA7); assay: Inhibition of recombinant full-length human TSSK1 at 1 uM assessed as residual activity at 1 uM using KKKVSRSGLYRSPSMPENLNRPR as substrate measured after 120 mins in presence of [gamma33P]ATP by scintillation counting method relative to control
[12] = target: Serine/threonine-protein kinase SIK1 (Homo sapiens) (UniProt P57059); assay: Inhibition of recombinant human SIK (1 to 281 residues) assessed as residual activity at 1 uM using AMARAASAAALARRR as substrate measured after 40 mins in presence of [gamma33P]ATP by scintillation counting method assay relative to control
[13] = system: CDK18/Cyclin Y (Homo sapiens), Q07002+Q8ND76 [T166M]; assay: Inhibition of recombinant full length human CDK18 /cyclinY T166M mutant assessed as residual activity at 1 uM using YRRAAVPPSPSLS as substrate incubated for 40 mins in presence of [gamma-33ATP] by scintillation counting based radiometry assay relative to control; format: protein-complex assay
[14] = target: Myosin light chain kinase 2, skeletal/cardiac muscle (Homo sapiens) (UniProt Q9H1R3); assay: Inhibition of recombinant full-length human MYLK2 at 1 uM using KKLNRTLSFAEPG as substrate measured after 40 mins in presence of [gamma33P]ATP by scintillation counting method relative to control; parameters: scale not given: the % may be the effect or the level left
[15] = target: Tyrosine-protein kinase ABL1 (Homo sapiens) (UniProt P00519); assay: Inhibition of human ABL1 (27 to end residues) assessed as residual activity at 1 uM using EAIYAAPFAKKK as substrate incubated for 40 mins in presence of [gamma-33ATP] by scintillation counting based radiometry assay relative to control
[16] = system: Serine/threonine-protein kinase Sgk1 (Homo sapiens), O00141 [S422D]; assay: Inhibition of recombinant human SGK S422D mutant (60 to end residues) assessed as residual activity at 1 uM using GRPRTSSFAEGKK as substrate measured after 40 mins in presence of [gamma33P]ATP by scintillation counting method relative to control
[17] = target: Tyrosine-protein kinase JAK1 (Homo sapiens) (UniProt P23458); assay: Inhibition of human JAK1 (866 to end residues) assessed as residual activity at 1 uM using GEEPLYWSFPAKKK as substrate after 40 mins by [gamma-33ATP] radiometric assay relative to control
[18] = target: Glycogen synthase kinase-3 beta (Homo sapiens, UniProt P49841, H350L); assay: Inhibition of human GSK-3beta H350L mutant (2 to end residues) at 10 uM using phospho GS2 peptide as substrate after 40 mins by [gamma-33ATP] radiometric assay
[19] = target: NT-3 growth factor receptor (Homo sapiens) (UniProt Q16288); assay: Inhibition of human TrkC (510 to end residues) assessed as residual activity at 1 uM using GEEPLYWSFPAKKK as substrate measured after 40 mins in presence of [gamma33P]ATP by scintillation counting method relative to control
[20] = target: TGF-beta receptor type-2 (Homo sapiens) (UniProt P37173); assay: Inhibition of human TGFBR2 (188 to end residues) assessed as residual activity at 1 uM using myelin basic protein as substrate measured after 120 mins in presence of [gamma33P]ATP by scintillation counting method relative to control
[21] = system: Proto-oncogene tyrosine-protein kinase receptor Ret (Homo sapiens), P07949 [V804M]; assay: Inhibition of recombinant human Ret V804M mutant (658 to end residues) assessed as residual activity at 1 uM using […] as substrate measured after 40 mins in presence of [gamma33P]ATP by scintillation counting method relative to control
Chain of Proto-oncogene tyrosine-protein kinase receptor Ret (Homo sapiens), P07949 [V804M] (P07949 whole entry V804M): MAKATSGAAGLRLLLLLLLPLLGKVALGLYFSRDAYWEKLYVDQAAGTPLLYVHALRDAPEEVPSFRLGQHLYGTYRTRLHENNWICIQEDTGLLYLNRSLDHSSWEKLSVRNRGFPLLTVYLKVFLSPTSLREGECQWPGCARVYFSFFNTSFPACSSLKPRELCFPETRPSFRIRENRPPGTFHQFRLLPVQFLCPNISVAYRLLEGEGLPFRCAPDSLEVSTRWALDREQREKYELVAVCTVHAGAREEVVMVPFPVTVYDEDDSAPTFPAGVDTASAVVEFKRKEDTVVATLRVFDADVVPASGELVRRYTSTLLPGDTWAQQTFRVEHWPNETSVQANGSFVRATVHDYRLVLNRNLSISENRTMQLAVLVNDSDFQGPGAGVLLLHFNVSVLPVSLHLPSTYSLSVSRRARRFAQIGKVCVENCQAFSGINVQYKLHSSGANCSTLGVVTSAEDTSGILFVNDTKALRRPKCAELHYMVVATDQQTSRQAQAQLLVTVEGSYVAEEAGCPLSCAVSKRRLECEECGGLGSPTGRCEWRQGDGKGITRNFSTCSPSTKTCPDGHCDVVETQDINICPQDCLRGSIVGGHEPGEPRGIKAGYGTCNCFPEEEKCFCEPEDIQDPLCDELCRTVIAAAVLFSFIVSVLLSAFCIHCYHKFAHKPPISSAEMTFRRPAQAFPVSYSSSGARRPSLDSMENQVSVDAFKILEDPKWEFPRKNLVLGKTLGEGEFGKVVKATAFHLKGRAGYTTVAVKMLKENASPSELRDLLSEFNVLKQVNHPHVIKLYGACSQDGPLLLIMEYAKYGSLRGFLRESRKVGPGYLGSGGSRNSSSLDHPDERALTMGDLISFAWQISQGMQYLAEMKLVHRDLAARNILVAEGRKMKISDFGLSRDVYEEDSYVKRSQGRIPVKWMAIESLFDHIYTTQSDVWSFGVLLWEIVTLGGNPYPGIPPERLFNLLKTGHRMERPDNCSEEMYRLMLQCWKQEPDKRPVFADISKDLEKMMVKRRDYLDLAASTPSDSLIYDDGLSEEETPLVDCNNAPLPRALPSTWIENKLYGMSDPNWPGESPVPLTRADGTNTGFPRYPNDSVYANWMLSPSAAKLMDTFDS

Chain of Serine/threonine-protein kinase Sgk1 (Homo sapiens), O00141 [S422D] (O00141 whole entry S422D): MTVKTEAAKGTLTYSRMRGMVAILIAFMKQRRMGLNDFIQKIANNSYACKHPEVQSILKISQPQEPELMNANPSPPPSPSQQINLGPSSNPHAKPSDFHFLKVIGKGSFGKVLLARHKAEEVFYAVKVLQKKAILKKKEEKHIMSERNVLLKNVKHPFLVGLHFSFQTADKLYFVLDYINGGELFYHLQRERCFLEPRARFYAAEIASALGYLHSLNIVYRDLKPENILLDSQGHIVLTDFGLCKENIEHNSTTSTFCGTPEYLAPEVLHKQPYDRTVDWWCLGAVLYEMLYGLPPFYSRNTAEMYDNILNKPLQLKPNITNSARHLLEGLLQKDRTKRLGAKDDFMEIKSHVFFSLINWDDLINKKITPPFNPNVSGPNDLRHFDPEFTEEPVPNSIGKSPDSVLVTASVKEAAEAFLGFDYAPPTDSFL
Chain of Tyrosine-protein kinase ABL1 (Homo sapiens) (P00519 whole entry): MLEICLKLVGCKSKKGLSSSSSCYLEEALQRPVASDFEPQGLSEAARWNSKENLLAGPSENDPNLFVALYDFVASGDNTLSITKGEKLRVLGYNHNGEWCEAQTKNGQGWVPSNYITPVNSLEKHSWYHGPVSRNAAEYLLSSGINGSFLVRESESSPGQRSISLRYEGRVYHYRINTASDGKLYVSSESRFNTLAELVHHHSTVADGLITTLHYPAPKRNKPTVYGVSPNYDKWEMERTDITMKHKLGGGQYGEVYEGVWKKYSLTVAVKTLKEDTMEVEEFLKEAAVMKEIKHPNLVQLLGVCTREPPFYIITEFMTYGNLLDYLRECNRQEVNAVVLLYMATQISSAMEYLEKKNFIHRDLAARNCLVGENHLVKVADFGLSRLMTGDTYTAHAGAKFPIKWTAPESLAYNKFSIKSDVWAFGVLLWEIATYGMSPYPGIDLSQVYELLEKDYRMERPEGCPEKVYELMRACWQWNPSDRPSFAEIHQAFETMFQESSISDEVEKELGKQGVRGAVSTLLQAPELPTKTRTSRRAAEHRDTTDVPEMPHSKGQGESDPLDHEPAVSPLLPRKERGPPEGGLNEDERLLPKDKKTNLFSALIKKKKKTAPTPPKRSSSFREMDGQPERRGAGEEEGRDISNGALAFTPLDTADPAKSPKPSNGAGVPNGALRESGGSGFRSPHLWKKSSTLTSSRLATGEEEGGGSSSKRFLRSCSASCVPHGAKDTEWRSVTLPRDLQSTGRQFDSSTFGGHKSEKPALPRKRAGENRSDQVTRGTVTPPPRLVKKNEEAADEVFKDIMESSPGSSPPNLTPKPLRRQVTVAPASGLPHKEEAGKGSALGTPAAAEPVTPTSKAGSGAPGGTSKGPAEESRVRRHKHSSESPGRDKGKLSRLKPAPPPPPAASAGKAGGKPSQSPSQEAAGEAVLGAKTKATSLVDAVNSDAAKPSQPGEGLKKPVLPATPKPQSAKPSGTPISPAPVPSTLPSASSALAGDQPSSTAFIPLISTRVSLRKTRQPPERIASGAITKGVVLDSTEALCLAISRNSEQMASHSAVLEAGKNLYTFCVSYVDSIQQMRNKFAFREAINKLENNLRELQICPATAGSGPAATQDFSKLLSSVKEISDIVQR
Chain of Glycogen synthase kinase-3 beta (P49841 whole entry, looked up, stated change not applied): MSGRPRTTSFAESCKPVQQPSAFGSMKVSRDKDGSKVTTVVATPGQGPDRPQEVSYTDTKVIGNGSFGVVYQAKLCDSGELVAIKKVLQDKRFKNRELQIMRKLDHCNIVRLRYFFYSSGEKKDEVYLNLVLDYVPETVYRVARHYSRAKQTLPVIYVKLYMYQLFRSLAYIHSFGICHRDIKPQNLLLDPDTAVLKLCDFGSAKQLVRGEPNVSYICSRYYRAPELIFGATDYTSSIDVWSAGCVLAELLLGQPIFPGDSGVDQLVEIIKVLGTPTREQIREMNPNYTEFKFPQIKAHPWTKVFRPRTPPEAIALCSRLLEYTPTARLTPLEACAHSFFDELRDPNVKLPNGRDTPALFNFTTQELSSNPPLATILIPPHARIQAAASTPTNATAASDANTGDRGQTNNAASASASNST
Chain of SRSF protein kinase 1 (Homo sapiens) (Q96SB4 whole entry): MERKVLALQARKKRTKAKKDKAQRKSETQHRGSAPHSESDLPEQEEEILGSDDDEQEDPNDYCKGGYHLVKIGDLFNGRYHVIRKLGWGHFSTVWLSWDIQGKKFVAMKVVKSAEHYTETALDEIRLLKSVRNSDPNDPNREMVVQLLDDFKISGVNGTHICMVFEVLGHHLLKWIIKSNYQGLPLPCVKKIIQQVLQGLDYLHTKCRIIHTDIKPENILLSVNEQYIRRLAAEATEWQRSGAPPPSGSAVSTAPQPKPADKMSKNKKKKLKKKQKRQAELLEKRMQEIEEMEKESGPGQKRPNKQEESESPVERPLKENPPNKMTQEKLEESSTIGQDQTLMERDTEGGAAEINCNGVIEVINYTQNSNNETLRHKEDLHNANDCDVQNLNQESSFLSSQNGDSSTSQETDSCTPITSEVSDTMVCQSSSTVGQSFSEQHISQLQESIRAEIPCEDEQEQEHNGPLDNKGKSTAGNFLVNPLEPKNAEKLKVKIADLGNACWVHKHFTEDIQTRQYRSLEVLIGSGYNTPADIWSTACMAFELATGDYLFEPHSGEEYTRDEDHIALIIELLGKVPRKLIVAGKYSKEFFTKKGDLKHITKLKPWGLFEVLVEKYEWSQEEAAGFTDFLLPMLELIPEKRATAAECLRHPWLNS
Chain of NT-3 growth factor receptor (Homo sapiens) (Q16288 32-839 limits assumed): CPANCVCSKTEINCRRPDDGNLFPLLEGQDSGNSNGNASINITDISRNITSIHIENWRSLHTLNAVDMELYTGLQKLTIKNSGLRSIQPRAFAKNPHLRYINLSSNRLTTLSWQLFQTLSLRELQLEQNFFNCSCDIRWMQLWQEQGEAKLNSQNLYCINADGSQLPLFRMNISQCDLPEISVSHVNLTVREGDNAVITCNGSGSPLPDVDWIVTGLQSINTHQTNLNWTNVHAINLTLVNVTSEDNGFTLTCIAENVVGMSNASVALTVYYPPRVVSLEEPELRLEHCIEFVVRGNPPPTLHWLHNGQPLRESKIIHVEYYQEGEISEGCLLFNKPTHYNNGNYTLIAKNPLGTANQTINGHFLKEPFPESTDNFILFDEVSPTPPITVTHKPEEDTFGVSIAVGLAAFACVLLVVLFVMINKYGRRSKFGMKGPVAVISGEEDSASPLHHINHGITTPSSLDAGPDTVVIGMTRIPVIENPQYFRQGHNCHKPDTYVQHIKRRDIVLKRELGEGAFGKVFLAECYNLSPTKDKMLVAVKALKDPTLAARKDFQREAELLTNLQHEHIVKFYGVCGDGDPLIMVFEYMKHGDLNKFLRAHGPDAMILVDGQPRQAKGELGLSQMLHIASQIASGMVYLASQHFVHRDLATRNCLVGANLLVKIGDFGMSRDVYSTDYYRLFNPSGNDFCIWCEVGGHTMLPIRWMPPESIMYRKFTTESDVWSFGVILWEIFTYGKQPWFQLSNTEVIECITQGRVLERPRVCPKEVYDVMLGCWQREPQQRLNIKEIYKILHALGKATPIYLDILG
Chain of Testis-specific serine/threonine-protein kinase 1 (Homo sapiens) (Q9BXA7 whole entry, the tested form may be a part): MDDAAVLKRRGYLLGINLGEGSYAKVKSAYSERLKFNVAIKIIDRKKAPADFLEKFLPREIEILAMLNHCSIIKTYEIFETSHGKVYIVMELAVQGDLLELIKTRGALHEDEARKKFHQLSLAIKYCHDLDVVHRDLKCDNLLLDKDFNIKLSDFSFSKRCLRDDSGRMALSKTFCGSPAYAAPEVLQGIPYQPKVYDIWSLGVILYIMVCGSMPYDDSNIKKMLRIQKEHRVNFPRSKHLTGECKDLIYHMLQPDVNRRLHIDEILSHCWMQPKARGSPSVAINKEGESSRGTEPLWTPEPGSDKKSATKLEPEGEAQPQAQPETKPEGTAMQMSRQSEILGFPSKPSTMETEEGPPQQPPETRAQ

Row | SMILES | Activity [1] [%] | Activity [2] [%] | Activity [3] [%] | Activity [4] [%] | Activity [5] [%] | Activity [6] [%] | Activity [7] [%] | Activity [8] [%] | Activity [9] [%] | Activity [10] [%] | Activity [11] [%] | Activity [12] [%] | Activity [13] [%] | Activity [14] [%] | Activity [15] [%] | Activity [16] [%] | Activity [17] [%] | IC50 [18] [nM] | Activity [19] [%] | Activity [20] [%] | also measured
1 | N=C1NC(=O)/C(=C\c2ccc(-c3cccc([N+](=O)[O-])c3)o2)S1 | 105 | 97 | 95 | 99 | 95 | 95 | 94 | 99 | 94 | 94 | 91 | 105 | 57 | 98 | 85 | 98 | 96 | 110 | 104 | 61 | Activity [21]: 95%
2 | C=CCOC(=O)c1cc(-c2ccc(/C=C3/NC(=S)NC3=O)o2)ccc1Cl | 114 | 103 | 100 | 91 | 111 | 118 | 101 | 90 | 104 | 110 | 97 | 107 | 87 | 92 | 122 | 91 | 106 | 218 | 98 | 90 | Activity [21]: 98%
